Data: patent US20120165319A1, “INHIBITORS OF INTERLEUKIN-1 BETA CONVERTING ENZYME” (VERTEX PHARMACEUTICALS INCORPORATED, priority 1995, published 2012)
Read-outs that look alike come from different tables or passages of the source.

Assays:
IL-1β, human whole blood = test: Whole blood assay for IL-1β production; assay type: cell-based; settings: read-out: Whole human blood IC50
Summary of the method: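 IL-1β was quantified by ELISA in plasma diluted 1:200. The plasma came from EDTA-anticoagulated human whole blood incubated at 30 °C for 16-18 h with LPS (final 5.0 ng/ml) plus a saline serial dilution of compound. Controls were no-LPS, no-inhibitor and highest-vehicle.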

[1] = tested on: IL-1β, human peripheral blood mononuclear cells (PBMC); test: PBMC cell assay: IL-1β assay with human PBMC or enriched adherent mononuclear cells, LPS-stimulated; assay type: cell-based
Summary of the method: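 Mature IL-1β is measured by ELISA in supernatants after 16–18 hr at 37 °C, 5% CO2, with LPS (5 ng/ml final) and test compound (0.1% DMSO final). Cells are human PBMC (6×10^6 cells/ml) or plate-adherent mononuclear cells (2.5−3.0×10^5 per well), and the 5–6 compound concentrations span the ICE Ki.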

ICE = target: T1, ICE (Homo sapiens, UniProt P29466); test: Enzyme assay with UV-visible substrate (visible ICE assay, Succinyl-Tyr-Val-Ala-Asp-pNitroanilide); assay type: biochemical
T1 sequence (P29466 120-297 limits assumed): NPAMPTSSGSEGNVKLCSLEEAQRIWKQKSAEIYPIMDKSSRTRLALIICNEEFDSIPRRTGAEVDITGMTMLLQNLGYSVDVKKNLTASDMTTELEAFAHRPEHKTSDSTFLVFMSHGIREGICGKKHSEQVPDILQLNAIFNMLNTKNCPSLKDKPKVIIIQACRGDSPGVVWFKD
T1 sequence (P29466 317-404 limits assumed): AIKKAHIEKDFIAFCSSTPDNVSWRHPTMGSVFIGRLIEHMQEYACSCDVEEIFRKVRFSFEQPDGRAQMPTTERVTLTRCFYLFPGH
Summary of the method: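 Read-out is the rate of pNA chromophore release (mOD/min, linear fit) monitored at 405-603 nm over 20 min at 37° C. Substrate was succinyl-Tyr-Val-Ala-Asp-pNitroanilide, added after a 15 min room-temperature preincubation of ICE with inhibitor.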

[2] = * = values obtained upon reassay
[3] = Homo sapiens, * = values obtained upon reassay
[4] = Homo sapiens, PBMC, * = values obtained upon reassay

| Compound | IC50 (IL-1β, human whole blood; [2]) [µM] | IC50 (IL-1β, human whole blood; [3]) [µM] | Ki (ICE; Table 5) [µM] | IC50 (IL-1β, human whole blood; Homo sapiens, Table 17) [µM] | Ki (ICE; Table 17) [µM] | IC50 [1, 4] [µM] | IC50 [1, 2] [µM] | IC50 ([1]; Homo sapiens, PBMC, Table 17) [µM] |
| --- | --- | --- | --- | --- | --- | --- | --- | --- |
| COc1ccc(C(=O)N[C@H]2CCC(=O)N3CCC[C@@H](C(=O)N[C@H](C=O)CC(=O)O)N3C2=O)cc1Cl [Compound 497] | 0.7 | 0.35 | 0.0035 | – | – | 0.74 | – | – |
| O=C[C@H](CC(=O)O)NC(=O)[C@@H]1CCCN2C(=O)CC[C@H](NC(=O)c3ccc(O)c(Cl)c3)C(=O)N12 [Compound 498] | 0.4 | 0.5 | 0.0015 | – | – | 0.56 | – | – |
| O=C[C@H](CC(=O)O)NC(=O)[C@@H]1CCCN2C(=O)CC[C@H](NC(=O)c3ccc(OCc4ccccc4)cc3)C(=O)N12 [Compound 499] | – | 9 | 0.0035 | – | – | 1.2 | 0.8 | – |
| O=C[C@H](CC(=O)O)NC(=O)[C@@H]1CCCN2C(=O)CC[C@H](NC(=O)C(=O)Nc3ccc(Cl)cc3)C(=O)N12 [Compound 500] | – | – | – | 1.8 | 0.025 | – | – | 1.8 |
| COc1cccc(OC)c1C(=O)C(=O)N[C@H]1CCC(=O)N2CCC[C@@H](C(=O)N[C@H](C=O)CC(=O)O)N2C1=O [Compound 501] | – | – | – | 1.6 | 0.0025 | – | – | 1.8 |
| O=C[C@H](CC(=O)O)NC(=O)CN1C(=O)[C@@H](NC(=O)c2ccccc2)CN(C(=O)CCc2ccccc2)c2ccccc21 [Compound 605a, (3S)-3-[(3S)-2-oxo-3-benzoylamino-5-(3-phenylpropionyl)-2,3,4,5-tetrahydro-1H-1,5-benzodiazepin-1-acetylamino-]4-oxo-butyric acid] | – | > 20 | 0.09 | – | – | 2.6 | – | – |
| O=C[C@H](CC(=O)O)NC(=O)CN1C(=O)[C@@H](NC(=O)c2ccccc2)CN(C(=O)NCc2ccccc2)c2ccccc21 [Compound 605p, (3S)-3-[(3S)-2-Oxo-3-benzoylamino-5-benzylaminocarbonyl-2,3,4,5-tetrahydro-1H-1,5-benzodiazepin-1-acetylamino]-4-oxo-butyric acid] | – | > 20 | 0.125 | – | – | 3.2 | – | – |
| COCC(=O)N1C[C@H](NCc2ccc3ccccc3c2)C(=O)N(CC(=O)N[C@H](C=O)CC(=O)O)c2ccccc21 [Compound 640, (3S)-3-[(3S)-2-Oxo-3-(2-naphthylmethylene)amino-5-methoxyacetyl-2,3,4,5-tetrahydro-1H-1,5-benzodiazepine-1-acetylamino]-4-oxo-butyric acid] | – | – | – | 3.9 | 0.155 | – | – | 2.25 |
| COCC(=O)N1C[C@H](NC(=O)C(=O)c2ccccc2)C(=O)N(CC(=O)N[C@H](C=O)CC(=O)O)c2ccccc21 [Compound 642, (3S)-3-[(3S)-2-Oxo-3-benzoylformylamino-5-methoxyacetyl-2,3,4,5-tetrahydro-1H-1,5-benzodiazepine-1-acetylamino]-4-oxo-butyric acid] | – | – | – | 2.9 | 0.035 | – | – | 8 |
| O=C[C@H](CC(=O)O)NC(=O)CN1C(=O)[C@@H](NC(=O)c2cccc3ccccc23)CN(C=O)c2ccccc21 [Compound 653, (3S)-3-[(3S)-2-Oxo-3-(1-naphthoyl)amino-5-formyl-2,3,4,5-tetrahydro-1H-1,5-benzodiazepine-1-acetylamino]-4-oxo-butyric acid] | – | – | – | 6 | 0.03 | – | – | 2.3 |
| COc1cccc(OC)c1C(=O)C(=O)N[C@H]1CN(C(=O)CO)c2ccccc2N(CC(=O)N[C@H](C=O)CC(=O)O)C1=O [Compound 678] | – | – | – | 2.2 | 0.005 | – | – | 2.7 |
| CC(=O)OCC(=O)N1C[C@H](NC(=O)c2ccccc2)C(=O)N(CC(=O)N[C@H](C=O)CC(=O)O)c2ccccc21 [Compound 683, (3S)-3-[(3S)-2-Oxo-3-benzoylamino-5-(2-acetoxy)acetyl-2,3,4,5-tetrahydro-1H-1,5-benzodiazepine-1-acetylamino]-4-oxo-butyric acid] | – | – | – | > 20 | 0.4 | – | – | > 20 |

Continued, in another order:

| IC50 (IL-1β, human whole blood; [2]) [µM] | IC50 (IL-1β, human whole blood; [3]) [µM] | Ki (ICE; Table 5) [µM] | IC50 (IL-1β, human whole blood; Homo sapiens, Table 17) [µM] | Ki (ICE; Table 17) [µM] | Compound | IC50 [1, 4] [µM] | IC50 [1, 2] [µM] | IC50 ([1]; Homo sapiens, PBMC, Table 17) [µM] |
| --- | --- | --- | --- | --- | --- | --- | --- | --- |
| – | 19 | 0.035 | – | – | CC(=O)N1C[C@H](NC(=O)c2nccc3ccccc23)C(=O)N(CC(=O)N[C@H](C=O)CC(=O)O)c2ccccc21 [Compound 620] | 1 | – | – |
| – | > 20 | 0.0072 | – | – | CC(=O)N1C[C@H](NC(=O)c2cccc3ccccc23)C(=O)N(CC(=O)N[C@H](C=O)CC(=O)O)c2ccccc21 [Compound 621] | 1.3 | – | – |
| – | > 20 | 0.035 | – | – | CC(=O)N1C[C@H](NC(=O)c2ccc3cc(O)ccc3c2)C(=O)N(CC(=O)N[C@H](C=O)CC(=O)O)c2ccccc21 [Compound 622] | 1.3 | – | – |
| – | 8 | 0.043 | – | – | CC(=O)Nc1ccc(C(=O)N[C@H]2CN(C(C)=O)c3ccccc3N(CC(=O)N[C@H](C=O)CC(=O)O)C2=O)cc1 [Compound 627] | 3.25 | – | – |
| – | > 20 | 0.036 | – | – | CC(=O)N1C[C@H](NC(=O)c2ccc3c(c2)OCO3)C(=O)N(CC(=O)N[C@H](C=O)CC(=O)O)c2ccccc21 [Compound 628] | 2.75 | – | – |
| – | 20 | 0.092 | – | – | CC(=O)N1C[C@H](NC(=O)OCc2ccccc2)C(=O)N(CC(=O)N[C@H](C=O)CC(=O)O)c2ccccc21 [Compound 633] | 5.75 | – | – |
| – | 4 | 0.055 | – | – | CC(=O)N1C[C@H](NC(=O)C(=O)c2ccccc2)C(=O)N(CC(=O)N[C@H](C=O)CC(=O)O)c2ccccc21 [Compound 635] | 1.9 | 3.4 | – |
| – | – | – | 5 | 0.009 | O=C[C@H](CC(=O)O)NC(=O)CN1C(=O)[C@@H](NC(=O)C(=O)c2ccccc2)CN(C(=O)CO)c2ccccc21 [Compound 681, (3S)-3-[(3S)-2-Oxo-3-benzoylformylamino-5-(2-hydroxy)acetyl-2,3,4,5-tetrahydro-1H-1,5-benzodiazepine-1-acetylamino]-4-oxo-butyric acid] | – | – | 3 |
| – | – | – | 2.8 | 0.015 | COc1c(C)cc(C(=O)N[C@H]2CN(C(C)=O)c3ccccc3N(CC(=O)N[C@H](C=O)CC(=O)O)C2=O)cc1C [Compound 684, (3S)-3-[(3S)-2-Oxo-3-(3,5-dimethyl-4-methoxybenzoyl)amino-5-acetyl-2,3,4,5-tetrahydro-1H-1,5-benzodiazepine-1-acetylamino]-4-oxo-butyric acid] | – | – | 5 |
| – | – | – | 9 | 0.004 | Nc1ccc(C(=O)N[C@H]2CN(C(=O)CO)c3ccccc3N(CC(=O)N[C@H](C=O)CC(=O)O)C2=O)cc1Cl [Compound 686] | – | – | 4 |
| – | – | – | 2.5 | 0.0008 | COCC(=O)N1C[C@H](NC(=O)c2cc(Cl)c(O)c(Cl)c2)C(=O)N(CC(=O)N[C@H](C=O)CC(=O)O)c2ccccc21 [Compound 689a, (3S)-3-[(3S)-2-Oxo-3-(3,5-dichloro-4-hydroxybenzoyl)amino-5-methoxyacetyl-2,3,4,5-tetrahydro-1H-1,5-benzodiazepine-1-acetylamino]-4-oxo-butyric acid] | – | – | 0.91 |
| – | – | – | 2 | 0.0022 | COCC(=O)N1C[C@H](NC(=O)c2cc(C)c(O)c(C)c2)C(=O)N(CC(=O)N[C@H](C=O)CC(=O)O)c2ccccc21 [Compound 689b, (3S)-3-[(3S)-2-Oxo-3-(3,5-dimethyl-4-hydroxybenzoyl)amino-5-methoxyacetyl-2,3,4,5-tetrahydro-1H-1,5-benzodiazepine-1-acetylamino]-4-oxo-butyric acid] | – | – | 0.6 |
| – | – | – | 1.4 | 0.0115 | O=C[C@H](CC(=O)O)NC(=O)CN1C(=O)[C@@H](NC(=O)c2ccc(O)cc2)CN(C(=O)CO)c2ccccc21 [Compound 691b, (3S)-3-[(3S)-2-Oxo-3-(4-hydroxybenzoyl)amino-5-hydroxyacetyl-2,3,4,5-tetrahydro-1H-1,5-benzodiazepine-1-acetylamino]-4-oxo-butyric acid] | – | – | 1.9 |
| – | – | – | 2.1 | 0.003 | COc1c(C)cc(C(=O)N[C@H]2CN(C(=O)CO)c3ccccc3N(CC(=O)N[C@H](C=O)CC(=O)O)C2=O)cc1C [Compound 694, (3S)-3-[(3S)-2-Oxo-3-(3,5-dimethyl-4-methoxybenzoyl)amino-5-hydroxyacetyl-2,3,4,5-tetrahydro-1H-1,5-benzodiazepine-1-acetylamino-]4-oxo-butyric acid] | – | – | 2.6 |
| – | – | – | 20 | 0.045 | CC(=O)N1C[C@H](NC(=O)C(=O)c2ccc3c(c2)OCO3)C(=O)N(CC(=O)N[C@H](C=O)CC(=O)O)c2ccccc21 [Compound 702] | – | – | > 5 |
| – | – | – | 20 | 0.005 | CC(=O)N1C[C@H](NC(=O)C(=O)c2c[nH]c3ccccc23)C(=O)N(CC(=O)N[C@H](C=O)CC(=O)O)c2ccccc21 [Compound 703] | – | – | 1.4 |
| – | – | – | 9.8 | 0.03 | COc1ccc(C(=O)C(=O)N[C@H]2CN(C(C)=O)c3ccccc3N(CC(=O)N[C@H](C=O)CC(=O)O)C2=O)cc1 [Compound 704] | – | – | 2.6 |
